The values below come from patent publication US12453735B2, “Treating cancer with a CCK receptor inhibitor and an immune checkpoint inhibitor” (GEORGETOWN UNIVERSITY, priority 2017, dated 2025).

SMILES strings stand for the structures. “Also recorded” adds a separate entry of the source.

The subject of data set [1] is Panc02 cells. The data set can be described thus: Orthotopic Panc02 pancreatic tumors in immune competent C57BL/6 mice. The format is in vivo, mouse. An excerpt:
(§1) Animal Models—Three different murine models were used in this investigation: 1) severe combined immune deficiency (B6.CB17-Prkdc^scid/SzJ; SCID) mice to study the role of CCKR blockade on orthotopic cancer growth and metastasis independent of immune cells, 2) immune competent Pdx1-Cre/LSL-Kras^G12D transgenic mice for a pancreatic carcinogenesis model to study the role of CCKR blockade on the pancreatic stellate cells and immune cells of the pancreas, and 3) immune competent C57BL/6 mice to study the role of CCKR antagonist in combination with immune checkpoint antibodies on growth and survival of mice bearing syngeneic PDAC tumors. Institutional guidelines for care and use of laboratory animals were followed throughout the study in accordance with protocols approved by the Georgetown University Institutional Animal Use and Care Committee.
(§2) Four weeks after tumor inoculation mice were euthanized, tumors removed and weighed, and the number of metastases counted. TILs were evaluated in tumors of the C57BL/6 mice by immunohistochemistry and fibrosis assessed with Masson's trichrome stain.

In data set [2] the test system is Panc02 cells. Briefly: Survival and tumor immune cells of C57BL/6 mice bearing subcutaneous Panc02 tumors, CCKR antagonist and CTLA-4 antibody.
Description: (§3) Cells were cultured in DMEM: F12 media with 10% FBS. […] In the following series of experiments Panc02 cells (1×10^6 or 2×10^6) were injected either orthotopically or subcutaneously in animals.
(§4) Treatments—Two different CCK receptor antagonists were used in this investigation. […] The other CCK receptor antagonist used was proglumide which is an orally bioavailable nonselective antagonist that blocks both the CCK-A and CCK-B receptors. Proglumide (Tocris Bioscience) was administered in the drinking water at a concentration of 0.1 mg/mL, or approximately 30 mg/kg/d per mouse.
(§5) Two immune checkpoint blockade antibodies were used in this investigation. The antibody to the programmed cell death protein 1 (PD1-Ab) (Bio X cell, West Lebanon, NH) was administered intraperitoneally to mice at a dose of either 125 μg×3 injections or 200 μg every 3 days.
(§6) Another series of experiments was performed in C57BL/6 mice to evaluate the role of CCKR blockade in combination with immune checkpoint antibody therapy. Each series of experiments was performed using 40 mice with syngeneic murine tumors. […] The primary end point was tumor volume (1,000 mm^3) or mouse survival. Tumors were excised and examined histologically, and by immunohistochemistry, or by flow cytometry for immune cells.
(§7) Tumor sections were also stained with either CD3 antibodies (1:85; DAKO, Carpinteria, CA); CD8 antibodies (1:75; eBioscience, San Diego, CA); CD4 antibodies (1:225; eBioscience), or FoxP3 antibody (1:30; eBioscience) and immunoreactive cells counted manually.
The next data set deals with pancreatic cancer tumor. Conditions: immune deficient nude mouse, 2 mg/kg twice daily; cited from earlier work.
Data set [3] has as its system Panc02 cells. The data set can be described thus: Orthotopic Panc02 pancreatic tumors in SCID mice. The data set is classed as in vivo, mouse.
From the text: as §1, §2

In another data set the test system is pancreatic primary tumor. Conditions: immune competent mouse, 4 mg/kg three times weekly ip; cited from earlier work.
The subject of data set [4] is Panc02 cells. Briefly: Subcutaneous Panc02 tumors in C57BL/6 mice, CCKR antagonist and PD-1 antibody. The format is in vivo, mouse. Conditions: vs PBS; for tumor size / tumor volume: Panc02 in C57BL/6, L364,718 4 mg/kg tiw ip, PD-1 antibody 125 μg×3 injections.
Description: as §3, §4, §5, §6, §7
The next data set addresses T1, CCK-A receptor (Homo sapiens, UniProt P32238).
T1 sequence (P32238 1-428): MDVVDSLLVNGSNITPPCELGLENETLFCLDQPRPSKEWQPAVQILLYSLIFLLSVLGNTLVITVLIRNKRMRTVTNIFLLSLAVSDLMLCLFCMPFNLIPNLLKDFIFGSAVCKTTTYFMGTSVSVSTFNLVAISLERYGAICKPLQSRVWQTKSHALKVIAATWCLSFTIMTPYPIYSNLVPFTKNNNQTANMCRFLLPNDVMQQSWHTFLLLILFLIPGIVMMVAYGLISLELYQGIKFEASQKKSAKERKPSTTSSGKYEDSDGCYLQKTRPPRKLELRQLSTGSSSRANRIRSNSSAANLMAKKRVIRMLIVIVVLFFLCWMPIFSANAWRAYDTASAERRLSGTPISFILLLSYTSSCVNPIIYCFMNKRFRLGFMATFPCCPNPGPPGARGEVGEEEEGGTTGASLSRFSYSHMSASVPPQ
The settings on record: cited from earlier work.

Data set [5] concerns Panc02 cells. Conditions: 2×10^6 Panc02 cells, vs PBS.
Description: as §3
(§8) Subcutaneous tumor volumes were measured with calipers weekly in animals bearing subcutaneous tumors using the formula Length×(width)^2×0.5.
as §4
Two immune checkpoint blockade antibodies were used in this investigation. […] The antibody to cytotoxic T-lymphocyte-associated antigen 4 (CTLA-4 Ab; Bio-X cell, West Lebanon, NH) was given at a dose of 200 μg every 3 days by intraperitoneal injections.
Another series of experiments was performed in C57BL/6 mice to evaluate the role of CCKR blockade in combination with immune checkpoint antibody therapy. Each series of experiments was performed using 40 mice with syngeneic murine tumors. […]
Comparisons were made by ANOVA and student's t-test. […] Survival was analyzed by Kaplan Meier analysis and differences by hazard ratios using Prism Software (GraphPad software, Inc., San Diego, CA). […]
Another data set has as its target T2, CCK-B receptor (Homo sapiens, UniProt P32239).
T2 sequence (P32239 1-447): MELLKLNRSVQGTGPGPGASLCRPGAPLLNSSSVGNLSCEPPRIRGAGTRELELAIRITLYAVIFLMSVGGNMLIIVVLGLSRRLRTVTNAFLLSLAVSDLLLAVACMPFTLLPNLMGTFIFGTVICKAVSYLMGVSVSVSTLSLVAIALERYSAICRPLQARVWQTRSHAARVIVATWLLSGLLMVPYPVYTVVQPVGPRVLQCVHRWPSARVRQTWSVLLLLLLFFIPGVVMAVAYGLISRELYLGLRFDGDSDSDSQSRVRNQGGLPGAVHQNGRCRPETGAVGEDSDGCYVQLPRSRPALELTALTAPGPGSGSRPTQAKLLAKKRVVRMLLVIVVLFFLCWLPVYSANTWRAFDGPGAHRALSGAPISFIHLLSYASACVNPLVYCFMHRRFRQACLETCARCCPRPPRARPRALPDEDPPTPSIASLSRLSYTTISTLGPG
Conditions: cited from earlier work.

For data set [6] the following is noted: cited from earlier work.
For data set [7], the system named is pancreas of Pdx1-Cre/LSL-Kras^G12D transgenic mouse. Briefly: Pancreatic carcinogenesis model, Pdx1-Cre/LSL-Kras^G12D transgenic mice. The format is in vivo. The settings on record: proglumide in drinking water for 4 months.
From the text: as §1
The second series of experiments was performed to analyze the role of CCKR antagonist monotherapy on the TILs of the pancreas microenvironment during pancreatic carcinogenesis using the Pdx1-Cre/LSL-Kras^G12D transgenic mouse. After the mice reached 3-4 months of age, when PanINs and fibrosis are established, mice were treated with either proglumide (in the drinking water) or untreated water. After 4 months of therapy, the pancreata were excised and compared to the pancreas of age-matched litter mates of mice on untreated water. […]

Where [8] appears, read: Panc02 tumors, immunohistochemistry.

Description for mT3 cells: The cell line is also syngeneic to C57BL/6 mice; and therefore, capable of being studied in immune competent mice.
as §8
Proglumide (Tocris Bioscience) was administered in the drinking water at a concentration of 0.1 mg/mL, or approximately 30 mg/kg/d per mouse.
The antibody to the programmed cell death protein 1 (PD1-Ab) (Bio X cell, West Lebanon, NH) was administered intraperitoneally to mice at a dose of either 125 μg×3 injections or 200 μg every 3 days.
In the 4th experiment, the mT3 cells (1×10^5) were injected and mice were treated with PBS, proglumide, the PD-1 antibody, or the combination of both compounds. […] The primary end point was tumor volume (1,000 mm^3) or mouse survival. Tumors were excised and examined histologically, and by immunohistochemistry, or by flow cytometry for immune cells.
Some tumors were stained with an antibody to α-SMA (Abeam; Ab124964 at 1:6000). Tumor sections were also stained with either CD3 antibodies (1:85; DAKO, Carpinteria, CA); CD8 antibodies (1:75; eBioscience, San Diego, CA); CD4 antibodies (1:225; eBioscience), or FoxP3 antibody (1:30; eBioscience) and immunoreactive cells counted manually.

As to `CN1C(=O)[C@@H](NC(=O)c2cc3ccccc3[nH]2)N=C(c2ccccc2)c2ccccc21` [L364,718, Devazepide], in the data set with Panc02 cells [1] (C57BL/6 mice, orthotopic Panc02, 4 mg/kg three times a week ip), the metastases entry is listed as “decreased metastases”. In the data set with Panc02 cells [1] (C57BL/6 mice, orthotopic Panc02, 4 mg/kg three times a week ip, vs PBS), the primary tumor size result is recorded as “did not alter the primary tumor size”. The “CD3+ lymphocytes in tumor by immunohistochemistry” value in the data set with Panc02 cells [1] (orthotopic Panc02 tumors, C57BL/6 mice, vs PBS) was “significant increase in CD3+ lymphocytes”. In the data set on Panc02 cells [2] (setting [8]), the “average CD4+ cell numbers in tumor” value is “increased” and the “average CD8+ cell numbers in tumor” value is listed as “increased”. Further, the “mice still alive at day 50” value with Panc02 cells [2] (subcutaneous Panc02, C57BL/6, all PBS controls had died by day 50) is recorded as 42%. The “pancreatic cancer tumor size” value in the data set on pancreatic cancer tumor is “significant reduction in pancreatic cancer tumor size”. Further, the primary tumor weight entry in the data set with Panc02 cells [3] (orthotopic 10^6 Panc02 cells, 4 mg/kg three times a week ip, four weeks, vs PBS) is reported as “significantly reduced the primary tumor weight”. Besides, the metastases entry with Panc02 cells [3] (orthotopic Panc02, 4 mg/kg three times a week ip, 75% of untreated SCID mice had metastases) is given as “no metastases”. Also, in the data set with pancreatic primary tumor, the “inhibition of pancreatic primary tumor growth” value was “insufficient dose, by itself, to inhibit pancreatic primary tumor growth” and the number of metastases result is on record as “did decrease the number of metastases”. The “tumor size / tumor volume” value in the data set on Panc02 cells [4] is on record as “did not significantly decrease the tumor size”. In addition, the “tumor size / tumor volume” value in the data set on Panc02 cells [4] (listed as L-364,718) was “not significantly smaller”. In addition, in the data set with Panc02 cells [4] (Panc02 tumors), the “CD4+ cells in tumor (immunohistochemistry)” value is “increased” and the “CD8+ cells in tumor (immunohistochemistry)” value was “increased”.
As to `CCCN(CCC)C(=O)C(CCC(=O)O)NC(=O)c1ccccc1` (stereo not shown) [proglumide], the “antagonism at the CCK-A receptor” value on CCK-A receptor is “weaker nonselective CCK antagonist”. The molecule also yielded a prolonged life in the data set on Panc02 cells [5] of 5 days. In the data set with mT3 cells (mT3 pancreatic cancers, average), the “survived longer than PBS control mice” value is 12 days. For the same molecule, in the data set on mT3 cells (mT3 tumors, vs PBS), the “number of Foxp3+ cells (Tregs)” value is “decreased”; the “tumor-associated fibrosis by Masson's trichrome stain” value was “noticeably less”; the “α-SMA immunoreactivity (activated fibroblasts)” value is on record as “somewhat decreased with proglumide, but this change was not statistically significant”. Also, in the data set with mT3 cells (mT3 tumors, vs PBS controls and PD-1 monotherapy, p<0.01), the “quantitative analysis of intratumoral fibrosis” value is on record as “significantly less fibrosis”. For the same molecule, the “growth of mT3 tumors / tumor size” value in the data set on mT3 cells (proglumide 0.1 mg/mL drinking water, PD-1 antibody 200 μg every three days, vs PBS) is given as “significantly slowed tumor growth; also recorded: significantly slower”. The “antagonism at the CCK-B receptor” value at CCK-B receptor was “inhibitory properties at both the CCK-A and CCK-B receptor types”. Also, the “fibrosis of tumor microenvironment (Masson's trichrome stain)” value with Panc02 cells [1] (orthotopic Panc02 tumors, vs PBS/vehicle) is “marked decreased fibrosis”. In data set [6], the water solubility result is reported as “water soluble”. In addition, the “fibrosis of the pancreas microenvironment (trichrome stain)” value in data set [7] (vs age-matched controls) was “significantly diminished fibrosis; also recorded: significantly reversed fibrosis”. The “CD3+ cells in mouse pancreas” value in data set [7] (vs untreated water) is given as “significant increase in the CD3+ cells”.
